Several values for one entry are separate records, joined by “and”; a condition that tells them apart may be missing. Identical values can stand only once. Inconclusive results and toxic doses are left out. How the source made its calls: active means survival T/C of 150% or more; inactive means T/C below 125% in these data.
Tested on: P388 leukemia ip, CD2F1 mice, survival T/C
Assay: NCI In Vivo Anticancer Drug Screen. Data for tumor model P388 Leukemia (intraperitoneal) in CD2F1 (CDF1) mice
Details: endpoint: median survival time, higher = longer survival
In short: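 Mice carrying the transplanted tumor received test compound or vehicle. Survival was recorded in each group, and the value is the treated-group measurement divided by that of the vehicle-treated control group.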

[1] = dose: 50.0 mg/kg/injection, schedule: Q01DX005 (ip), vehicle: saline with Tween-80
[2] = dose: 100.0 mg/kg/injection, schedule: Q01DX005 (ip), vehicle: saline with Tween-80
[3] = dose: 200.0 mg/kg/injection, schedule: Q01DX005 (ip), vehicle: saline with Tween-80
[4] = dose: 50.0 mg/kg/injection, schedule: Q01DX005 (ip), vehicle: Klucel (hydroxypropylcellulose) (HPC)
[5] = dose: 100.0 mg/kg/injection, schedule: Q01DX005 (ip), vehicle: Klucel (hydroxypropylcellulose) (HPC)
[6] = dose: 200.0 mg/kg/injection, schedule: Q01DX005 (ip), vehicle: Klucel (hydroxypropylcellulose) (HPC)
[7] = dose: 50.0 mg/kg/injection, schedule: Q01DX009 (ip), vehicle: saline with Tween-80
[8] = dose: 100.0 mg/kg/injection, schedule: Q01DX009 (ip), vehicle: saline with Tween-80
[9] = dose: 200.0 mg/kg/injection, schedule: Q01DX009 (ip), vehicle: saline with Tween-80
[10] = dose: 25.0 mg/kg/injection, schedule: Q01DX009 (ip), vehicle: saline
[11] = dose: 50.0 mg/kg/injection, schedule: Q01DX009 (ip), vehicle: saline
[12] = dose: 60.0 mg/kg/injection, schedule: Q01DX005 (ip), vehicle: saline with Tween-80
[13] = dose: 120.0 mg/kg/injection, schedule: Q01DX005 (ip), vehicle: saline with Tween-80
[14] = dose: 240.0 mg/kg/injection, schedule: Q01DX005 (ip), vehicle: saline with Tween-80
[15] = dose: 200.0 mg/kg/injection, schedule: Q01DX009 (ip), vehicle: saline

Measured: T/C

CN(C)CC(CN(C)C)C(=O)/C=C/c1ccc(OCc2ccccc2)cc1
inactive: dose: 6.25 mg/kg/injection, schedule: Q01DX005 (ip), vehicle: saline 104 % of control | dose: 12.5 mg/kg/injection, schedule: Q01DX005 (ip), vehicle: saline 97 % of control

O=C1CCCc2[nH]c3ccc(Cl)cc3c21
inactive: [1] 92 % of control | [2] 99 % of control | [3] 92 % of control

CC(C)(C)C(=O)Oc1ccc(Br)cc1
inactive: dose: 100.0 mg/kg/injection, schedule: Q01DX001 (ip), vehicle: Klucel (hydroxypropylcellulose) (HPC) 106 % of control | dose: 200.0 mg/kg/injection, schedule: Q01DX001 (ip), vehicle: Klucel (hydroxypropylcellulose) (HPC) 106 % of control | dose: 400.0 mg/kg/injection, schedule: Q01DX001 (ip), vehicle: Klucel (hydroxypropylcellulose) (HPC) 108 % of control

O=S(=O)(O)c1cnc2nccn2c1
inactive: dose: 50.0 mg/kg/injection, schedule: Q04DX003 (ip), vehicle: suspension in saline 99 % of control | dose: 100.0 mg/kg/injection, schedule: Q04DX003 (ip), vehicle: suspension in saline 110 % of control | dose: 200.0 mg/kg/injection, schedule: Q04DX003 (ip), vehicle: suspension in saline 105 % of control

N#CNc1nnnn1-c1ccc(-n2nnnc2NC#N)cc1 (tested in a mixture with another compound)
inactive: dose: 100.0 mg/kg/injection, schedule: Q04DX003 (ip), vehicle: Klucel (hydroxypropylcellulose) (HPC) 92 % of control | dose: 200.0 mg/kg/injection, schedule: Q04DX003 (ip), vehicle: Klucel (hydroxypropylcellulose) (HPC) 91 % of control | dose: 400.0 mg/kg/injection, schedule: Q04DX003 (ip), vehicle: Klucel (hydroxypropylcellulose) (HPC) 90 % of control

CC1(C)OC2OC3C(CNCCO)OC(c4ccccc4)OC3C2O1 (stereo not given)
inactive: [4] 107 % of control | [5] 108 % of control | [6] 101 % of control

CCOC(=O)C1=C(O)C(C)(c2ccc(O)cc2O)N=C1c1ccccc1 (stereo not given)
inactive: [4] 95 % of control | [5] 96 % of control | [6] 89 % of control

NC1=NS(=O)(=O)Nc2nc[nH]c21
inactive: [7] 101 % of control | [8] 100 % of control

CC(=O)OCC(=O)[C@@]1(O)CC[C@H]2[C@@H]3CCC4=CC(=O)CC[C@]4(C)[C@@]3(Cl)[C@@H](O)C[C@@]21C
inactive: dose: 88.0 mg/kg/injection, schedule: Q04DX003 (ip), vehicle: saline with Tween-80 123 % of control | [8] 118 % of control | dose: 132.0 mg/kg/injection, schedule: Q04DX003 (ip), vehicle: saline with Tween-80 123 % of control | [9] 90 % of control | dose: 200.0 mg/kg/injection, schedule: Q04DX003 (ip), vehicle: saline with Tween-80 114 % of control | dose: 300.0 mg/kg/injection, schedule: Q04DX003 (ip), vehicle: saline with Tween-80 123 % of control | dose: 400.0 mg/kg/injection, schedule: Q01DX009 (ip), vehicle: saline with Tween-80 100 % of control | dose: 400.0 mg/kg/injection, schedule: Q04DX003 (ip), vehicle: saline with Tween-80 109 % of control

O=C(O)CCCCCCCCC(=O)CCl
inactive: [10] 99 % of control | [11] 115 % of control

C/C(CC(N)=O)=C1\C(=O)NN(c2ccccc2)C1=O
inactive: [12] 108 % of control | [13] 110 % of control | [14] 114 % of control

Nc1cccc(C(=O)NCCNC(=O)c2cccc(N)c2O)c1O
inactive: [4] 98 % of control | [5] 97 % of control | [6] 95 % of control

CC(=O)Nc1cc([N+]#N)ccc1S(=O)(=O)O
inactive: [7] 109 % of control | [8] 93 % of control | [9] 89 % of control

C[N+]1(CCC(=O)c2ccccc2)CCOCC1
inactive: dose: 6.25 mg/kg/injection, schedule: Q01DX009 (ip), vehicle: saline 100 % of control | dose: 12.5 mg/kg/injection, schedule: Q01DX009 (ip), vehicle: saline 103 % of control | [10] 100 % of control | [11] 100 % of control and 97 % of control | [15] 96 % of control

Cc1ccccc1-n1cccc1C(=O)O
inactive: [12] 95 % of control | [13] 93 % of control | [14] 99 % of control

COCCN1C(N)=C(C#N)N=C2CCCC(N=C(C#N)C#N)=C21
inactive: [1] 100 % of control | [2] 107 % of control | [3] 101 % of control

CCCCCCCCCCCCCCCCOc1ccc(S(=O)(=O)N/N=c2/sc(-c3ccccc3Cl)nn2C)cc1C(=O)O
inactive: [11] 100 % of control | dose: 100.0 mg/kg/injection, schedule: Q01DX009 (ip), vehicle: saline 100 % of control | [15] 96 % of control

Reference: PubChem BioAssay AID330 (DTP/NCI, 2004)
